One series addresses T1, human P2X3 receptor (Homo sapiens, UniProt P56373).
T1 construct: expressed in transfected cells
T1 sequence (P56373 1-397): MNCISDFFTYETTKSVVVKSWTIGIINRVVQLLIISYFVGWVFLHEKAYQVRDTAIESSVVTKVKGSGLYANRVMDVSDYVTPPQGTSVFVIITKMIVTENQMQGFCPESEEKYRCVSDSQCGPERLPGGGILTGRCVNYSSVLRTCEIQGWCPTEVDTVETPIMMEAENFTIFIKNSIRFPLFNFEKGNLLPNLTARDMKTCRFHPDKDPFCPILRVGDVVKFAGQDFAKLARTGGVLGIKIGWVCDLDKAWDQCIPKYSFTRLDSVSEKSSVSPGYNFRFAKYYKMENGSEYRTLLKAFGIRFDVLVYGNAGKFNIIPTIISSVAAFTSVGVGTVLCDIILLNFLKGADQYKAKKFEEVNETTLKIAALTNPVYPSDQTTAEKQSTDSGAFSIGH
As to the kind of experiment: Inhibition of ATP-induced calcium fluorescence (Fluo-3, FDSS 3000) in C6BU-1 cells stably expressing human P2X3 receptor. Conditions: C6BU-1 cell transfected with human P2X3 receptor gene; 40 nM ATP solution; Fluo-3 fluorescence intensity. Format: cell-based. The procedure: Stably expressing cell line (C6BU-1 cell transfected with human P2X3 receptor gene (GenBank accession number Y07683)) was used. The cells were seeded in a 96-well microtiter plate at a concentration of 8000 cells/well and cultured in the medium (8.3% fetal bovine serum, 8.3% horse serum, 1% antibiotic and antifungal in DMEM) for one day at 37° C. under 5% carbon dioxide atmosphere. The medium was replaced with 4 μM Fluo-3-AM solution (pH7.5) containing 20 mM HEPES, 137 mM NaCl, 2.7 mM KCl, 0.9 mM MgCl2, 5.0 mM CaCl2, 5.6 mM D-glucose, 2.5 mM probenecid, 10% BSA, and 0.08% Pluronic F-127, and incubated at 37° C. under 5% dioxide carbon atmosphere for one hour. The plate was washed with washing buffer (20 mM HEPES, 137 mM NaCl, 2.7 mM KCl, 0.9 mM MgCl2, 5.0 mM CaCl2, 5.6 mM D-glucose, 2.5 mM probenecid, pH7.5), and each well was added with 40 μL of this buffer. The plate was placed in High-Throughput Screening System FDSS 3000 (Hamamatsu Photonics K.K.). Measurement of fluorescence intensity by FDSS 3000 was started, and 40 μL of DMSO solutions containing different concentrations of the test compound as prepared by dilution with dilution buffer (20 mM HEPES, 137 mM NaCl, 2.7 mM KCl, 0.9 mM MgCl2, 5.0 mM CaCl2, 5.6 mM D-glucose, 2.5 mM probenecid, 0.1% Pluronic F-127, pH7.5) were dispensed to each well through the built-in automatic dispenser. Five minutes after, 40 nM ATP solution (50 μL) prepared by dilution with the dilution buffer was dispensed through the built-in automatic dispenser, and the measurement of fluorescence intensity was continued for 3 min. For each well, the specific maximum fluorescence intensity was calculated as the ratio of the maximum fluorescence intensity after addition of the ATP solution to the fluorescence intensity at the starting of the measurement. […] FDSS software (Hamamatsu Photonics K.K.) was used for calculation of the specific maximum fluorescence intensity. IC50 was calculated using Microsoft™ Excel™ (Microsoft Corporation) and XLfit™ (ID Business Solutions Ltd.).

A word on the IC50: it is the midpoint of a concentration-inhibition curve. As a reminder, the melting point is the temperature, or range, at which the solid turns liquid. Turning to `CC(C)(C)c1n[nH]c2c1C(C1CCCCC1)N(c1ccc(-c3ccon3)cc1)C2=O` (stereo not drawn) [Example I-96, 3-tert-butyl-4-cyclohexyl-5-(4-isoxazol-3-ylphenyl)-4,5-dihydro-1H-pyrrolo[3,4-c]pyrazol-6-one], the melting point lay in the range of 251 to 252 °C. The IC50 on human P2X3 receptor turned out to be 920 nM.
For `CCOC(=O)c1ccc(N2C(=O)C(=O)C(C(=O)c3ccc(OC)cc3)C2C2CCCCC2)cc1` (stereo not drawn) [Example I-2] the same measures were 252 to 255 °C and 10 nM.
For `COc1ccc(C(=O)C2=C(O)C(=O)N(c3ccc(C4=NCCO4)cc3)C2c2ccc(F)cc2)cc1` (stereo not drawn) [Example I-69] the same measures were 189 to 192 °C and 3780 nM.
Take `COc1ccc(C(=O)C2=C(O)C(=O)N(c3ccc(C#N)cc3)C2c2ccccc2)cc1` (stereo not drawn) [Example I-76]: the IC50 at human P2X3 receptor turned out to be 6480 nM.
Still for that read-out and setting: in the case of `CCOC(=O)c1csc(N2C(=O)C(O)=C(C(=O)c3ccc(OC)cc3)C2c2ccccc2)n1` (stereo not drawn) [Example I-52] it was 1270 nM.
Still for that read-out and setting: in the case of `Nc1ccc(C(=O)C2=C(O)C(=O)N(c3ccc(-c4ccon4)cc3)C2C2CCCCC2)cc1` (stereo not drawn) [II-130] it was 130 nM; in that of `COC(=O)c1ccc(C(=O)C2=C(O)C(=O)N(c3ccc(C(F)(F)F)cc3)C2c2ccccc2)cc1` (stereo not drawn) [Example I-24], 180 nM.
With `COc1ccc(C(=O)C2=C(O)C(=O)N(c3ccc(SC(F)(F)F)cc3)C2c2ccc(F)cc2)cc1` (stereo not drawn) [Example I-45], the melting point is 225 to 228 °C (dec.). The IC50 at human P2X3 receptor is 580 nM.
For `COc1ccc(C(=O)C2=C(O)C(=O)N(c3nc(-c4ccncc4)cs3)C2C2CCCCC2)cc1` (stereo not drawn) [II-95], the IC50 on human P2X3 receptor was found to be 710 nM.
`COc1ccccc1C1c2c(C(C)(C)C)n[nH]c2C(=O)N1c1ccc(-c2cc(NC(=O)OC(C)(C)C)no2)cc1` (stereo not drawn) [II-193]: the IC50 at human P2X3 receptor was found to be 2270 nM.
On the same count and under the same terms, in the case of `COc1ccccc1C1C(C(=O)C(C)(C)CO)=C(O)C(=O)N1c1ccc(-c2ccon2)cc1` (stereo not drawn) [II-129] it was 740 nM; in that of `CCC(CC)C1C(C(=O)c2ccc(C(=O)NCCO)cc2)=C(O)C(=O)N1c1ccc(-c2noc(C)n2)cc1` (stereo not drawn) [II-183], 32 nM; in that of `CCOC(=O)c1ccc(N2C(=O)C(O)=C(C(=NOC)c3ccc(OC)cc3)C2c2ccccc2)cc1` (stereo not drawn) [II-17], 305 nM.
Turning to `COc1ccc(C(=O)C2=C(O)C(=O)N(c3ccc(OC(F)(F)F)cc3)C2c2ccc(F)cc2)cc1` (stereo not drawn) [Example I-48], the melting point fell in the range of 241 to 244 °C. Further, the IC50 at human P2X3 receptor came out at 970 nM.
In the case of `CCOC(=O)c1ccc(N2C(=O)C(O)=C(C(=O)c3ccc(OC)cc3)C2C(C)C)cc1` (stereo not drawn) [Example I-20], at human P2X3 receptor, the IC50 was found to be 140 nM.
Still for that read-out and setting: in the case of `CCOC(=O)c1ccc(N2C(=O)C(O)=C(C(=O)c3cccn3C)C2c2ccccc2)cc1` (stereo not drawn) [Example I-57] it was 1530 nM.
`COc1ccc(C(=O)C2=C(O)C(=O)N(c3ccc(-c4nc(C)no4)cc3)C2c2ccc(F)cc2)cc1` (stereo not drawn) [Example I-25] returned a melting point of 236 to 239 °C. In addition, at human P2X3 receptor, the IC50 was 180 nM.
With `COc1ccccc1C1c2c(C(C)(C)C)n[nH]c2C(=O)N1c1ccc(-c2cc(C(=O)N(C)C)no2)cc1` (stereo not drawn) [II-172], the IC50 on human P2X3 receptor stood at 2000 nM.

For the origin of these results see patent US8497263B2, “Pyrrolinone derivative and pharmaceutical composition comprising the same” (Shionogi & Co., Ltd., priority 2007, dated 2013).
